Experimental data taken from patent US20170165259A1, “COMBINED MODULATION OF IRE1” (THE REGENTS OF THE UNIVERSITY OF CALIFORNIA, priority 2014, published 2017).
Values belong to the molecule of their own block, whether it stands above or below them.

What was measured:
[1] = tested on: endogenous IRE1α; assay: XBP1 mRNA splicing in INS-1 cells under ER stress; format: cell-based, rat
Procedure: (§1) FIGS. 5A-5E. […] (FIG. 5C) EtBr-stained agarose gel of XBP1 complementary DNA (cDNA) amplicons from the INS-1 cells described in (B).
(§2) To further explore how IRE1α modulators affect the kinase and RNase activities of endogenous IRE1α under ER stress, in vivo studies using INS-1 rat insulinoma cell lines, which are derived from insulin-producing pancreatic β-cell tumors and contain large well-developed ERs, were conducted.

[2] = tested on: endogenous IRE1α; assay: IRE1α auto-phosphorylation immunoblot in INS-1 cells under ER stress; format: cell-based, rat
Procedure: as §1, §2
For protein analysis, cells were lysed in M-PER buffer (Thermo Scientific) plus complete EDTA-free protease inhibitor (Roche) and phosphatase inhibitor cocktail (Sigma). The concentration of samples was determined using BCA Protein Assay (Thermo). […] Gels were run using MES buffer and transferred onto nitrocellulose transfer membrane using an XCell II™ Blot Module. Blocking, antibody incubation, and washing were done in PBS or TBS with 0.05% Tween-20 (v/v) and 5% (w/v) non-fat dry milk or BSA, or blocking buffer (Licor-Odyssey). Antibodies used were: mouse anti-Actin (Sigma-Aldrich); rabbit anti-cleaved Caspase-2 (Abcam); mouse anti-GAPDH, anti-c-Myc, anti-rabbit, anti-proinsulin, and anti-IRE1α (Santa Cruz Biotechnology); anti-phospho-IRE1α and anti-full length Caspase-2 (Novus Biologicals); and rabbit anti-Caspase-3, anti-JNK, anti-eIF2a, anti-phospho-eIF2a, and mouse anti-phospho-JNK (Cell Signaling). Antibody binding was detected by using near-infrared-dye-conjugated secondary antibodies (Licor) on the LI-COR Odyssey scanner or visualized by capturing on a CL-XPosure film using ECL SuperSignal West Dura Extended Duration Substrate (both from Thermo Scientific).

[3] = tested on: panel of kinases (Src, Abl); assay: Counter-screen against a panel of kinases; format: biochemical; conditions: 12 kinases in this panel
[4] = tested on: IRE1α mutants that lack kinase activity; conditions: cited from earlier work
[5] = target: T1, IRE1α* (Homo sapiens, UniProt O75460); assay: XBP1 RNA minisubstrate (FRET-quenched) RNase assay; format: biochemical; conditions: for IRE1α* RNase activity (XBP1 RNA cleavage), effect in words: in vitro
T1 construct: human IRE1α (residues 469-977, IRE1α*); made in house; host or cells: SF9 insect cells, Bac-to-Bac baculovirus

[6] = target: T1, IRE1α*; assay: IRE1α* kinase assay (96-well dot blot, 32γ-ATP, STK peptide substrate 2); format: biochemical
Procedure: FIGS. 16A-16C. Divergent modulation of IRE1α RNase activity using distinct classes of kinase inhibitors. (FIG. 16A) KIRA6 inhibition of IRE1α* kinase activity. IC50 values determined by fitting percent kinase activity (n=3); Urea PAGE of competition cleavage by IRE1α* of XBP1 RNA mini-substrate (FIG. 16B) and α^32P-labeled Ins2 RNA (FIG. 16C), under indicated [KIRA6]; IC50s determined by fitting in-gel fluorescence intensities (XBP1) and phosphorimager (Ins2).
KIRAs are tested for ability to inhibit IRE1α* kinase and RNase activities in vitro. The XBP1 minisubstrate assay shown in FIGS. 1B-1C, is amenable to 96- or 384-well format, and is used to determine RNase IC50s. In parallel, kinase IC50s for all KIRAs are determined in a 96-well dot blot assay with 32γ-ATP and STK peptide substrate 2 as substrates. Time-dependence of inhibition is determined for all electrophile-containing KIRAs. RNase and kinase assays have been used to profile the KIRAs in FIG. 13, showing a strong correlation between kinase and RNase IC50s. […] Thus, the structure-based design strategy uses these two kinases as counter targets (described below).

[7] = target: T1, IRE1α*; assay: IRE1α* autophosphorylation kinase assay in vitro; format: biochemical
[8] = target: T2, dP-IRE1α* (Homo sapiens, UniProt O75460); assay: XBP1 RNA minisubstrate RNase assay with dephosphorylated IRE1α*; format: biochemical; conditions: of the levels of IRE1α*; increasing APY29
T2 construct: human IRE1α (residues 469-977, IRE1α*); made in house; host or cells: SF9 insect cells, then λ-phosphatase (NEB) treatment
Description: Reactions were quenched by addition of 4 M urea at different time points and then were subjected to urea 6% PAGE analysis.

[9] = target: T1, IRE1α*; assay: DSS crosslinking, oligomer/monomer ratio of IRE1α*; format: biochemical; conditions: saturating inhibitor, DSS crosslinker
[10] = target: T1, IRE1α*; assay: ICAT cysteine footprinting (alkylation rates); format: binding; conditions: inhibitor 20 μM
Description: FIGS. 3A-3D. Characterization of GP146's interaction with the ATP-binding site of IRE1α. (FIG. 3A) A crystal structure of the kinase domain of human IRE1α bound to ADP; the native cysteine residues that were monitored using the ICAT footprinting method are labeled and shown as thick rods and the DFG-motif is shown as thin bars; cys715 is part of the hinge region of IRE1α and its side chain partially occupies the ATP-binding site; cys645 is in the activation loop, two residues away from the DFG-motif; cys572 is located on the top of the N-terminal lobe of the catalytic domain and is distant from the ATP-binding site.
As Cys645 and Cys715 are located within the ATP-binding cleft of IRE1α, the accessibility of these residues would be expected to be affected by ligands that occupy this site, while Cys572 is a solvent-exposed residue located on the top of the N-terminal lobe of the kinase.

[11] = Compound toxicity / proliferative blocks in cells; format: cell-based
[12] = target: T3, IRE1α* (P830L) (Homo sapiens, UniProt O75460, P830L); assay: IRE1α* (P830L) cancer mutant: kinase, RNase, oligomeric state in vitro; format: biochemical
T3 construct: human IRE1α (residues 469-977, IRE1α*) or equivalent IRE1α mutants; made in house; host or cells: SF9 insect cells, Bac-to-Bac baculovirus
Description: Compared to IRE1α* (WT), IRE1α* (P830L) has reduced kinase activity, as the full-length protein does in vivo. […] IRE1α* (P830L) cannot cleave a FRET-quenched XBP1 RNA mini-substrate (Han et al., 2009), consistent with reduced RNase activity in vivo.
A construct containing the cytosolic kinase and RNase domains of human IRE1α (residues 469-977, IRE1α*) or equivalent IRE1α mutants was expressed in SF9 insect cells using the Bac-to-Bac baculovirus expression system (Invitrogen) as described (Wang et al., 2012). […] (NEB)-treated dephosphorylated IRE1α* (dP-IRE1α*) was also prepared and all the crosslinking experiments were performed as described (Wang et al., 2012). The RNase assay using 5′FAM-3′BHQ-labeled XBP1 single stem-loop minisubstrate (5′FAM-[…]-3′BHQ, from Dharmacon) (SEQ ID NO:22), and the IRE1α*auto-phosphorylation kinase assay were both done as described (Wang et al., 2012). The ability of KIRA6 to inhibit the catalytic activity of Erk2, JNK2, JNK3, PKA, and Piml was determined using previously reported assay conditions (Hill et al., 2012). Internally ^32P-labelled RNAs (mouse XBP1 RNA and Ins2 RNA, as described in (Han et al., 2009), and rat rhodopsin mRNA) were also used as substrates. For time-course determination, IRE1α* proteins (16 nM) were incubated with or without 10 μM 1NM-PP1 for 20 min prior to addition of 20 nM radio-labeled RNAs. Reactions were quenched by addition of 4 M urea at different time points and then were subjected to urea 6% PAGE analysis. […] The cleavage buffer and general manipulation are the same as described (Wang et al., 2012). cDNA for rat rhodopsin was purchased from Invitrogen and amplified by PCR using primers: 5′-[…]-3′ (forward) (SEQ ID NO:23) and 5′-[…]-3′ (reverse) (SEQ ID NO:24). RNA was in vitro transcribed, cleaved by IRE1α*, and the cleavage sites mapped as described (Wang et al., 2012).

[13] = tested on: yeast and murine IRE1α; conditions: cited from earlier work
[14] = varying concentration of the tested inhibitor

T3 sequence (O75460 469-977 P830L): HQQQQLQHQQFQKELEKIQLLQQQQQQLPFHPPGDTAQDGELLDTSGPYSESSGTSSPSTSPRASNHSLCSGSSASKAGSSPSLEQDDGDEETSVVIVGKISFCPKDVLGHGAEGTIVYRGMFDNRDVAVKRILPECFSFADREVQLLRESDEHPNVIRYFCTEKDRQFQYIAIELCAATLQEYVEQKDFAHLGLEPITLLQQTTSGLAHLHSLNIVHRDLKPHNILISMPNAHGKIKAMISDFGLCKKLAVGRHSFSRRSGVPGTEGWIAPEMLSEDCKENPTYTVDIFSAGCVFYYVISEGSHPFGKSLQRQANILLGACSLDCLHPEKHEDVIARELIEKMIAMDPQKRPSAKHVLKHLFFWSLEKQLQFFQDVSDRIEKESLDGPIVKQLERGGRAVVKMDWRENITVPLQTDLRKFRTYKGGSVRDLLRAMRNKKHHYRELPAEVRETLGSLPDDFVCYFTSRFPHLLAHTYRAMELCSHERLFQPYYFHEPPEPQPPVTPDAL
T1 sequence (O75460 469-977): as the sequence (O75460 469-977 P830L) above, with L362P counted along it
T2 sequence (O75460 469-977): as the sequence (O75460 469-977 P830L) above, with L362P counted along it

SMILES: CNc1nccn2c(C(C)(C)C)nc(-c3ccc(NC(=O)Nc4cccc(C(F)(F)F)c4)c4ccccc34)c12 [(NMe)KIRA6, 1-(4-(8-methylamino-3-tert-butylimidazo[1,5-a]pyrazin-1-yl)naphthalen-1-yl)-3-(3-(trifluoromethyl)phenyl)urea]
XBP1 mRNA splicing in INS-1 cells ([1]; by Tm, compound at 10 μM): inhibits neither output
endogenous IRE1α auto-phosphorylation in INS-1 cells ([2]; by Tg, compound at 10 μM): inhibits neither output

SMILES: CC(C)c1nc(-c2ccc(NC(=O)Nc3cccc(C(F)(F)F)c3)c3ccccc23)c2c(N)nccn12 [KIRA3, 1-(4-(8-amino-3-isopropylimidazo[1,5-a]pyrazin-1-yl)naphthalen-1-yl)-3-(3-(trifluoromethyl)phenyl)urea]
off-target inhibition in kinase panel [3]: the only off-target inhibition observed is for the tyrosine kinases Src and Abl
endogenous IRE1α auto-phosphorylation in INS-1 cells ([2]; ER stress (Tg)): abrogates IRE1α autophosphorylation

SMILES: CC(C)(C)n1nc(Cc2cccc3ccccc23)c2c(N)ncnc21 [1NM-PP1]
RNase activity of kinase-inactive IRE1α mutants [4]: able to rescue the RNase activity of IRE1α mutants that lack kinase activity

IC50 ([5]; IRE1α*): < 30 nM
IC50 [6]: 35 nM
SMILES: CC(C)(C)c1nc(-c2ccc(NC(=O)Nc3cccc(F)c3)c3ccccc23)c2c(N)nccn12 [KIRA7]

IRE1α* RNase activity (XBP1 RNA cleavage), effect in words [5]: significant increase in overall potency
SMILES: CC(C)c1nc(-c2ccc(NC(=O)Nc3cccc(C(F)(F)F)c3)cc2)c2c(N)nccn12 [KIRA2, 1-(4-(8-amino-3-isopropylimidazo[1,5-a]pyrazin-1-yl)phenyl)-3-(3-(trifluoromethyl)phenyl)urea]

SMILES: CC(C)c1nc(-c2ccc(NC(=O)c3cccc(C(F)(F)F)c3)c3ccccc23)c2c(N)nccn12 [GP146(Am), N-(4-(8-amino-3-isopropylimidazo[1,5-a]pyrazin-1-yl)naphthalen-1-yl)-3-(trifluoromethyl)benzamide]
IRE1α* RNase activity (XBP1 RNA cleavage), effect in words [5]: markedly diminished ability to inhibit the RNase activity of IRE1α compared to GP146

SMILES: c1cc(Nc2cc(C3CC3)[nH]n2)nc(Nc2ccc3nc[nH]c3c2)n1 [APY29]
IC50 [7]: 280 nM
IRE1α* RNase activity (XBP1 RNA cleavage), effect in words [5]: acting as an activator
RNase competition, IRE1α* under fixed KIRA3 (GP146) [5, 14]: progressively reverse IRE1α* RNase inhibition caused by a fixed concentration of KIRA3
RNase competition, IRE1α* under fixed STF-083010 [5, 14]: cannot rescue direct inhibition caused by the covalent RNase modifier STF-083010
dP-IRE1α* cleavage of XBP1 mini-substrate restored, plateau [8]: ~60%
IRE1α* oligomerization (oligomer/monomer ratio) [9]: further enhances
accessibility of Cys572 [10]: no detectable difference
accessibility of Cys645 to alkylating agents [10]: highly shielded from alkylating agents
accessibility of Cys715 (rate of alkylation) [10]: slowing the rate of alkylation
toxicity in cells [11]: pleiotropic toxicity, including proliferative blocks at low micromolar concentrations
RNase activity of IRE1α* (P830L) [12]: partially rescue RNase activity
autophosphorylation by IRE1α* (P830L) [12]: suppresses residual autophosphorylation
oligomeric state of IRE1α* (P830L) [12]: increases IRE1α* (P830L)'s oligomeric state
RNase of yeast and murine IRE1α [13]: directly activate the RNase of yeast and murine IRE1α

SMILES: CNc1nccn2c(C(C)C)nc(-c3ccc(NC(=O)Nc4cccc(C(F)(F)F)c4)c4ccccc34)c12 [GP146(NMe), 1-(4-(3-isopropyl-8-(methylamino)imidazo[1,5-a]pyrazin-1-yl)naphthalen-1-yl)-3-(3-(trifluoromethyl)phenyl)urea]
IRE1α* RNase activity (XBP1 RNA cleavage), effect in words [5]: markedly diminished ability to inhibit the RNase activity of IRE1α compared to GP146
XBP1 mRNA splicing (IRE1α RNase activity) in INS-1 cells ([1]; thapsigargin (Tg) 6 nM): does not block the splicing of XBP1 mRNA
